Where two headings read alike, the source gives them in different places.
How the values were obtained:
[1] = tested on: IDO1; settings: cited from earlier work
[2] = tested on: MCF7; test: Cell viability MTT assay, 72 h; format: cell-based; settings: Homo sapiens; for inhibition at 50 µM: shown when calculated IC50 >50 μM, read-out: MCF7 inhibition rate (%) at 50 μM; for IC50: read-out: MCF7 IC50
Experimental: (§1) B16-F10 mouse melanoma cells, NCI-H460 human lung cancer cell line and MCF7 were obtained from American Type Culture Collection (ATCC). All the cell lines were cultured with Dulbecco’ modified Eagle’s medium (DMEM) (Invitrogen Corporation, Waltham, MA, USA) supplemented with 10% fetal bovine serum (FBS) (Hyclone, Waltham, MA, USA) and 1% penicillin streptomycin (Invitrogen) at 37 °C in 5% CO2.
(§2) The in vitro inhibitory effects of the compounds were measured by MTT assay. Briefly, different kinds of cells were plated in 96-well plates at a density of 2000/well. After attachment for overnight at 37 °C, the cells were treated with the compounds at various concentrations. After 72 h culture, the MTT reagent was added to each well, and plates were incubated for another 4 h at 37 °C. Then, the blue-purple crystal formamidine was dissolved in DMSO after discarding the supernatant. Samples were measured using microplate reader at a wavelength of 570 nm (Biotek Instruments, Inc., Winooski, VT, USA). IC50 values were calculated with GraphPad Prism 8.0 software.

[3] = tested on: NCI-H460 human lung cancer cell line; test: Cell viability MTT assay, 72 h; format: cell-based; settings: for inhibition at 50 µM: shown when calculated IC50 >50 μM, read-out: H460 inhibition rate (%) at 50 μM; for IC50: read-out: H460 IC50
Experimental: as §1, §2

[4] = target: rhTDO (Homo sapiens, UniProt P48775); test: Enzyme-based TDO activity assay (kynurenine absorbance at 492 nm); format: biochemical; settings: at 50 μM; shown when calculated IC50 >50 μM; read-out: TDO inhibition rate (%) at 50 μM
Sequence of rhTDO (P48775 whole entry): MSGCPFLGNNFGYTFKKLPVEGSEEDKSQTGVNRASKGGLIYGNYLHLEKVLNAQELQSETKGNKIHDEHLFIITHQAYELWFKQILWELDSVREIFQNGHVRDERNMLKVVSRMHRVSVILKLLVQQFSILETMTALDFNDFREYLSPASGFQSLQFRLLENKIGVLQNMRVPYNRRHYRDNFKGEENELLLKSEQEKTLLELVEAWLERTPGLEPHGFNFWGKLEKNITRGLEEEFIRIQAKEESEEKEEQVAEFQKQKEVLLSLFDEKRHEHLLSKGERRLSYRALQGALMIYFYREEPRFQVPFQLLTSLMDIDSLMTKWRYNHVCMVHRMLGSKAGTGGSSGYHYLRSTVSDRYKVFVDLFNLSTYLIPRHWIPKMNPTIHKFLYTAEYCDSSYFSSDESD
Experimental: (§3) The compounds on IDO1 or TDO activity were determined as follows: A standard reaction mixture (100 μL) containing 100 mM potassium phosphate buffer (pH 6.5), 40 mM ascorbic acid (neutralized with NaOH), 200 μg/mL catalase, 20 μM methylene blue and 0.05 μM rhIDO1 or rhTDO was added to the solution containing the substrate L-tryptophan and the test sample at a determined concentration. […] The yellow pigment derived from kynurenine was measured at 492 nm using a SYNERGY-H1 microplate reader (Biotek Instruments, Inc., Winooski, VT, USA). IC50 was analyzed using the GraphPad Prism 8.0 software (GraphPad Software, San Diego, CA, USA).

[5] = target: rhIDO1 (Homo sapiens, UniProt P14902); test: Enzyme-based IDO1 activity assay (kynurenine absorbance at 492 nm); format: biochemical; settings: for inhibition at 50 µM: shown when calculated IC50 >50 μM, read-out: IDO inhibition rate (%) at 50 μM; for IC50: rhIDO1 0.05 μM, 37 °C, 45 min, read-out: IDO IC50
Sequence of rhIDO1 (P14902 whole entry): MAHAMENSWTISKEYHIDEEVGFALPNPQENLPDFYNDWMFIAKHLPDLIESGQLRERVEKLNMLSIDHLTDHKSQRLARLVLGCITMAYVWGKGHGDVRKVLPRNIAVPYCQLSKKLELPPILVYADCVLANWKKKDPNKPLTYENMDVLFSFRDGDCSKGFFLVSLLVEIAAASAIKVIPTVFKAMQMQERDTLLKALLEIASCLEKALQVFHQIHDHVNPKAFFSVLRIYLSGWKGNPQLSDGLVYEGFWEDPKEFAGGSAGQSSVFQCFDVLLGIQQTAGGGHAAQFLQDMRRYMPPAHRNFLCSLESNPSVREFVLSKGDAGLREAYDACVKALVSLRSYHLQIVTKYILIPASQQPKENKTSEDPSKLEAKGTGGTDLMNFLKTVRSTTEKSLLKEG
Experimental: as §3

[6] = Figure 1, reported IDO1 inhibitors

inhibition at 50 µM [4] [%] | inhibition at 50 µM [5] [%] | SMILES | inhibition at 50 µM [2] [%] | inhibition at 50 µM [3] [%] | further results
8.4 | 6.2 | COc1ccc2[nH]cc(C(=O)O)c2c1 [DX-01-06, 5-methoxy-1H-indole-3-carboxylic Acid] | 25.7 | 11.2 | –
19.7 | – | O/N=C/c1cc2ccccc2[nH]1 [DX-01-16, (E)-1H-indole-2-carbaldehyde Oxime] | 20.9 | 44.5 | IDO1 inhibition, in words [5]: moderate; IC50 [5]: 23.2 µM
26.5 | 46.2 | COc1ccc(Cl)cc1-c1cn(Cc2ccc(C(F)(F)F)cc2)cn1 [DX-04-01, 4-(5-chloro-2-methoxyphenyl)-1-(4-(trifluoromethyl)benzyl)-1H-imidazole] | – | – | IC50 [2]: 8.53 µM; IC50 [3]: 12 µM
11.2 | 21.2 | COc1ccc(Cl)cc1-c1nn[nH]c1-c1ccc(C(F)(F)F)cc1 [DX-04-08, 4-(5-chloro-2-methoxyphenyl)-5-(4-(trifluoromethyl)phenyl)-1H-1,2,3-triazole] | 24.9 | 7.5 | –
22.4 | – | Oc1ccc(Cl)cc1-c1cn(Cc2ccc(C(F)(F)F)cc2)nn1 [DX-04-05, 4-chloro-2-(1-(4-(trifluoromethyl)benzyl)-1H-1,2,3-triazol-4-yl)phenol] | – | – | IC50 [2]: 42.6 µM; IC50 [3]: 22.9 µM; IDO1 inhibition, in words [5]: moderate; IC50 [5]: 23 µM
19.6 | 22.6 | CSc1[nH]c2ccc(F)cc2c1C1CC(=O)NC1=O (racemic) [DX-02-06, (R/S) 3-(5-fluoro-2-(methylthio)-1H-indol-3-yl)pyrrolidine-2,5-dione] | 19.9 | 30.1 | –
– | – | C[C@@H](C(=O)Nc1ccc(Cl)cc1)C1CCC(c2ccnc3ccc(F)cc23)CC1 (stereo partly shown) [BMS-986205] | – | – | IC50 [1, 6]: 0.0017 µM
– | – | Cc1ccc(-c2csc3ncc(C(=O)NCCc4cccc(Cl)c4)n23)cc1 [AMCL-17g] | – | – | IC50 ([1]; reported value): 0.077 µM
– | – | O=C1c2ccccc2-n2c1nc1ccccc1c2=O [Tryptanthrin] | – | – | IC50 [1, 6]: 0.534 µM
– | – | Cc1ccc(NC(=O)Nc2cc([C@H]3C[C@H]3C(=O)O)ccc2N(CC(C)C)CC(C)C)cc1 [BMS-978587] | – | – | IC50 [1, 6]: 0.0071 µM
15.4 | 21.6 | CCOC(=O)c1[nH]c2ccc(F)cc2c1C1CC(=O)NC1=O (racemic) [DX-02-03, (R/S) Ethyl 3-(2,5-dioxopyrrolidin-3-yl)-5-fluoro-1H-indole-2-carboxylate] | 22.1 | 21.7 | –
6 | 3.3 | O=C(O)c1c[nH]c2ccc([N+](=O)[O-])cc12 [DX-01-04, 5-nitro-1H-indole-3-carboxylic Acid] | 24.3 | 15.1 | –
20.3 | 11.9 | O/N=C/c1ccccc1-c1nn[nH]n1 [DX-03-04, (E) 2-(2H-tetrazol-5-yl)benzaldehyde Oxime] | 34.7 | 12.7 | –
13.9 | 20.1 | C[S+]([O-])c1[nH]c2ccc(F)cc2c1C1CC(=O)NC1=O (racemic) [DX-02-07, (R/S) 3-(5-fluoro-2-(methylsulfinyl)-1H-indol-3-yl)pyrrolidine-2,5-dione] | 11 | 15.2 | –
10.1 | 10.3 | Cc1ccc2[nH]cc(C(=O)O)c2c1 [DX-01-03, 5-methyl-1H-indole-3-carboxylic Acid] | 37.6 | 26.3 | –
